The record followed here is patent US9254251B2, “Benzoic acid amide compound” (AMOREPACIFIC CORPORATION, priority 2011, dated 2016).

In one experiment the test system is B16F10 melanoma cells. The experiment is described as follows: Effect of reducing melanin production in melanocytes (Dooley's method). Type of experiment: cell-based. The conditions noted are these: B16-F10, 120 h; Mouse-derived B16F10 melanoma cells; melanin extracted after 5 days, absorbance at 405 nm; read-out: IC50 (concentration required to reduce melanin production in melanocytes to half). As to the method: The effect of reducing melanin production of the benzamide derivative compounds prepared in Examples in melanocytes was measured according to the Dooley's method. Mouse-derived B16F10 melanoma cells acquired from the Korean Cell Line Bank were used. DMEM (Cat No. 11995), FBS (Cat No. 16000-044), and antibiotic and antifungal agents (Cat No. 15240-062) necessary for cell culturing were purchased from Invitrogen (GIBCO). The cells were cultured under the condition of 37° C. and 5% CO2. The cultured B16F10 cells were detached using 0.05% trypsin-EDTA and seeded onto a 48-well plate with the same cell number (1×10^4 cells/well). From the next day, the culture medium was replaced with one containing 10 ppm of the compound of Examples for three consecutive days. Kojic acid and rucinol were used as positive control. After 5 days, melanin was extracted from the cells by treating with 1 N NaOH at 60° C. for 2 hours, which was quantitated by measuring absorbance at 405 nm.

The next experiment addresses mushroom tyrosinase. The experiment can be described thus: Effect of inhibiting mushroom tyrosinase activity (method of Vanni, et al.). The note with it: read-out: IC50 (concentration required to inhibit tyrosinase activity to 50%); mushroom tyrosinase 10 units, tyrosine substrate, 37° C. for 10 minutes, pH 6.8, absorbance at 480 nm. The experiment is classed as biochemical. As to the method: The effect of inhibiting mushroom tyrosinase activity of the benzamide derivative compounds of Examples was measured according to the method of Vanni, et al. Specifically, 49.5 μL of 0.1 M potassium phosphate buffer (pH 6.8), 45 μL of distilled water (DW), 0.5 μL (10 units) of mushroom tyrosinase (SIGMAT-7755) and 5 μL of the benzamide derivative compound of Examples were mixed and reacted at 37° C. for 10 minutes by mixing with 50 μL of 0.3 mg/mL tyrosine aqueous solution in a 96-well plate (total volume: 150 μL).

`O=C(NCc1cc(O)ccc1O)c1cc(C23CC4CC(CC(C4)C2)C3)c(O)cc1O` [Example 20, 5-adamantan-1-yl-N-(2,5-dihydroxybenzyl)-2,4-dihydroxybenzamide]: in the experiment on B16F10 melanoma cells, the IC50 is 2900 nM.

In the case of `O=C(NCCc1ccc(O)c(O)c1)c1cc(C23CC4CC(CC(C4)C2)C3)c(O)cc1O` [Example 1, 5-adamantan-1-yl-N-[2-(3,4-dihydroxyphenyl)-ethyl]-2,4-dihydroxybenzamide], the IC50 in the experiment with B16F10 melanoma cells came out at 1200 nM.

Regarding `O=C(NCc1ccc(O)cc1O)c1ccc(O)c(C23CC4CC(CC(C4)C2)C3)c1` [Example 17, 3-adamantan-1-yl-N-(2,4-dihydroxybenzyl)-4-hydroxybenzamide], at mushroom tyrosinase, the IC50 came out at 900 nM.

Regarding `COc1cc(O)c(C(=O)NCc2ccc(O)cc2O)cc1C12CC3CC(CC(C3)C1)C2` [Example 9, 5-adamantan-1-yl-N-(2,4-dihydroxybenzyl)-2-hydroxy-4-methoxybenzamide], the IC50 with B16F10 melanoma cells is 1800 nM; on mushroom tyrosinase it was 800 nM.

Turning to `COc1ccc(C(=O)NCc2ccc(O)c(O)c2)cc1C12CC3CC(CC(C3)C1)C2` [Example 12, 3-adamantan-1-yl-N-(3,4-dihydroxybenzyl)-4-methoxybenzamide], in the experiment on B16F10 melanoma cells, the IC50 was 1900 nM.

For the compound `CCCCc1ccc(O)cc1O` [Rucinol, reference compound], the IC50 was determined as 10000 nM with B16F10 melanoma cells and 1300 nM on mushroom tyrosinase.

On to `O=c1cc(CO)occ1O` [Kojic acid, reference compound], for which the IC50 in the experiment on B16F10 melanoma cells amounted to 300000 nM.

In the case of `COc1cc(CNC(=O)c2cc(C34CC5CC(CC(C5)C3)C4)c(O)cc2O)cc(OC)c1` [Example 21, 5-adamantan-1-yl-N-(3,5-dimethoxybenzyl)-2,4-dihydroxybenzamide], the IC50 in the experiment with B16F10 melanoma cells stood at 2000 nM.

With `COc1ccc(C(=O)NCc2ccc(O)cc2O)cc1C12CC3CC(CC(C3)C1)C2` [Example 18, 3-adamantan-1-yl-N-(2,4-dihydroxybenzyl)-4-methoxybenzamide], the IC50 at mushroom tyrosinase worked out at 1400 nM.

Regarding `O=C(NCc1ccc(O)cc1O)c1cc(C23CC4CC(CC(C4)C2)C3)c(O)cc1O` [Example 8, 5-adamantan-1-yl-N-(2,4-dihydroxybenzyl)-2,4-dihydroxybenzamide], the results for the IC50 in the experiment on B16F10 melanoma cells and on mushroom tyrosinase were 1200 nM and 1100 nM, respectively.

With `O=C(NCCc1ccc(O)c(O)c1)c1ccc(O)c(C23CC4CC(CC(C4)C2)C3)c1` [Example 13, 3-adamantan-1-yl-N-[2-(3,4-dihydroxyphenyl)-ethyl]-4-hydroxybenzamide], the IC50 with B16F10 melanoma cells came out at 3000 nM.

As for `COc1cc(OC)c(C23CC4CC(CC(C4)C2)C3)cc1C(=O)NCc1ccc(O)cc1O` [Example 10, 5-adamantan-1-yl-N-(2,4-dihydroxybenzyl)-2,4-dimethoxybenzamide], the IC50 was 1100 nM in the experiment on B16F10 melanoma cells and 900 nM on mushroom tyrosinase.

As for `O=C(NCCc1ccc(O)cc1)c1cc(C23CC4CC(CC(C4)C2)C3)c(O)cc1O` [Example 5, 5-adamantan-1-yl-2,4-dihydroxy-N-[2-(4-hydroxyphenyl)-ethyl]benzamide], the IC50 in the experiment with B16F10 melanoma cells worked out at 1100 nM.
